# From patent publication US9839642B2, “Beta-tetrazolyl-propionic acids as metallo-beta-lactamase inhibitors” (priority 2014, dated 2017)
# pIC50: −log10 of the molar value.
# Legend:
# [1] = system: Serratia marcescens expressing IMP-1 (CL5741); assay: Antibiotic potentiation activity: synergistic concentration (MITC95) with imipenem, growth by OD600; type: cell-based; settings: 95% inhibition of bacterial growth, strain CL5741
# Experimental: (§1) Antibiotic Potentiation Activity: Determination of Synergistic Concentration
# (§2) The bacterial strains tested included the clinical strains Escherichia coli expressing NDM-1 (CLB30005, CLB30016), Serratia marcescens expressing IMP-1 (CL5741), and Klebsiella pneumoniae expressing VIM-1 (IHMA599644). Inhibitor activity was measured in the presence and absence of imipenem or ceftazidime in a 384-well microplate.
# (§3) The clinical strains CLB30016, CL5741, and IHMA599644 were grown on trypticase soy agar containing 5% sheep's blood. The clinical strain CLB30005 was grown on Mueller Hinton broth agar containing 8 μg/ml imipenem. The bacteria on agar plates were incubated overnight at 35° C. with ambient humidity (achieved from an open pan of water inside the incubator). The following day, individual colonies from each clinical strain were picked and resuspended in 5 ml saline to attain an OD600 of 0.14, 0.11, 0.15 and 0.13, for CLB30005, CLB30016, CL5741 and IHMA599644, respectively. These were further diluted 1:100 into 1.1×CAMHB and used to inoculate the test wells as described below.
# (§4) Imipenem in 10 mM 3-(N-morpholino)propanesulfonic acid (MOPS, pH 7) was stored in single use aliquots at −80° C. Test inhibitors were dissolved in DMSO and diluted 1:50 in the assay, resulting in a final concentration range of 200 μM to 0.195 μM. On the day of the assay, 4 μl of antibiotic was added to 45 μl of bacteria followed by 1 μl of test compound and mixed by pipetting and with an orbital shaker. The concentration of antibiotic used in the assay was 1 μg/ml or 4 μg/ml. Microplates were covered and incubated at 35° C. for 22 hours to 24 hours. At the end of the incubation, absorbance was determined using a spectrophotometer. The synergistic concentration of MBLI was determined by identifying the lowest concentration of test compound in the presence of a given concentration of antibiotic that was required to inhibit 95% of the growth of the bacteria.
# (§5) Representative compounds of the present invention display a synergistic effect. For example, representative compounds of EXAMPLES 1-456 were determined to restore susceptibility to imipenem at concentrations of 200 μM or less.
# [2] = system: Klebsiella pneumoniae expressing VIM-1 (IHMA599644); assay: as above; type: cell-based; settings: 95% inhibition of bacterial growth, strain IHMA599644
# Experimental: as §1, §2, §3, §4, §5
# [3] = system: Escherichia coli expressing NDM-1 (CLB30016); assay: as above; type: cell-based; settings: 95% inhibition of bacterial growth, strain CLB30016
# Experimental: as §1, §2, §3, §4, §5
# [4] = molecular target: VIM-1 (Pseudomonas aeruginosa, UniProt A0A0F7KYQ8); assay: Enzyme activity: determination of IC50, fluorescence assay with CCF2-FA substrate; type: biochemical; settings: enzyme 30 pM, CCF2-FA 1.25 μM, 2 hours at 25° C.; read-out: VIM1 IC50
# Experimental: (§6) Enzyme Activity: Determination of IC50
# (§7) The Class B enzyme activities were measured in the presence of a compound of the EXAMPLES as a test inhibitor in a fluorescence assay against a commercially available substrate consisting of a cephalosporin core linking 7-hydroxycoumarin to fluorescein (CCF2-FA; Life Technologies, Grand Island, N.Y.). The enzyme (NDM-1, IMP-1 or VIM-1) and the substrate were diluted in 100 mM KH2PO4 buffer (pH 7) containing 0.005% Tween-20 and 10 μM ZnSO4. In the assay, the final concentration of enzyme was 1 pM, 2 pM and 30 pM for NDM-1, IMP-1 and VIM-1, respectively, and the final concentration of CCF2-FA was 1.25 μM. The test inhibitor was dissolved in DMSO and diluted 1:50 in the assay, resulting in a final concentration range of 20 μM to 0.00063 μM. In a 384-well microplate, the test inhibitor was incubated with the metallo-β-lactamase enzyme and the substrate for 2 hours at 25° C. Fluorescence at 460 nm following excitation at 405 nm was measured. The IC50 value was determined from semi-logarithmic plots of enzyme inhibition versus inhibitor concentration, with a curve generated using a 4-parameter fit.
# [5] = molecular target: NDM-1 (Klebsiella pneumoniae, UniProt C7C422); assay: as above; type: biochemical; settings: enzyme 1 pM, CCF2-FA 1.25 μM, 2 hours at 25° C.; read-out: NDM1 IC50
# NDM-1, sequence (C7C422 29-270, looked up, species assumed): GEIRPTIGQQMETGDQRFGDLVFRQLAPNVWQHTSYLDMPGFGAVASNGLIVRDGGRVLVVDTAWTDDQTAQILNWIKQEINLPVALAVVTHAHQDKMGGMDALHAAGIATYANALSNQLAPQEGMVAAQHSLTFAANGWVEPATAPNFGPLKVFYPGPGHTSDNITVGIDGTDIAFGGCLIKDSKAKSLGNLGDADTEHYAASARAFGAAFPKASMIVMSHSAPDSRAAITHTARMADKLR
# Experimental: as §6, §7
# [6] = molecular target: IMP-1 (Serratia marcescens, UniProt P52699); assay: as above; type: biochemical; settings: enzyme 2 pM, CCF2-FA 1.25 μM, 2 hours at 25° C.; read-out: IMP1 IC50
# IMP-1, sequence (P52699 19-246, looked up, species assumed): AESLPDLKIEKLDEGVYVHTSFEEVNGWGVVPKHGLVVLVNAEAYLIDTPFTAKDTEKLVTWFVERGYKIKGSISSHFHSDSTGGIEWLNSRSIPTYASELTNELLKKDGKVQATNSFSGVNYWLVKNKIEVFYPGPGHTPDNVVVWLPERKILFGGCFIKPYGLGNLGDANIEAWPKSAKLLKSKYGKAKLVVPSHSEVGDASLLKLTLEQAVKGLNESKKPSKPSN
# Experimental: as §6, §7
Structure (SMILES),IMP1 SM5741 MITC95 [1],VIM1 KP599644 MITC95 [2],NDM1 EC30016 MITC95 [3],pIC50 [4],pIC50 [5],pIC50 [6]
"CC(C)C[C@H](C(=O)O)[C@H](Cc1ccc(Br)c(F)c1)c1nnn[nH]1 [Example 23, (2S)-2-[(1S)-2-(4-bromo-3-fluorophenyl)-1-(1H-tetrazol-5-yl)ethyl]-4-methylpentanoic acid]",3.1 µM,31 µM,6.3 µM,8.85,7.70,7.06
"CC(C)C[C@H](C(=O)O)[C@H](Cc1cc(F)cc(Br)c1)c1nnn[nH]1 [Example 24, (2S)-2-[(1S)-2-(3-bromo-5-fluorophenyl)-1-(1H-tetrazol-5-yl)ethyl]-4-methylpentanoic acid]",4.7 µM,12.5 µM,9.4 µM,9.22,7.74,6.64
"CC(C)C[C@H](C(=O)O)[C@H](Cc1ccc(Br)cc1)c1nnn[nH]1 [Example 25, (2S)-2-[(1S)-2-(4-bromophenyl)-1-(1H-tetrazol-5-yl)ethyl]-4-methylpentanoic acid]",3.1 µM,12.5 µM,4.7 µM,8.59,7.49,7.06
"CCC[C@H](C(=O)O)[C@H](Cc1ccccc1Br)c1nnn[nH]1 [Example 26, (2S)-2-[(1S)-2-(2-bromophenyl)-1-(1H-tetrazol-5-yl)ethyl]pentanoic acid]",12.5 µM,18.8 µM,3.1 µM,8.62,8.00,6.24
"CCC[C@H](C(=O)O)[C@H](Cc1cccc(C#N)c1)c1nn[nH]n1 [Example 41, (2S)-2-[(1S)-2-(3-cyanophenyl)-1-(1H-tetrazol-5-yl)ethyl]pentanoic acid]",37.5 µM,18.8 µM,18.8 µM,9.06,7.22,6.23
CC(C)C[C@H](C(=O)O)[C@H](Cc1ccc(C#N)cc1)c1nnn[nH]1 [Example 42],12.5 µM,37.5 µM,18.8 µM,8.85,7.13,6.72
"CCC[C@H](C(=O)O)[C@H](Cc1ccccc1C#N)c1nnn[nH]1 [Example 43, (2S)-2-[(1S)-2-(2-cyanophenyl)-1-(1H-tetrazol-5-yl)ethyl]pentanoic acid]",50 µM,31 µM,4.7 µM,8.49,7.66,5.80
"CCC[C@H](C(=O)O)[C@H](Cc1ccc(-c2nnn[nH]2)cc1)c1nn[nH]n1 [Example 44, (S)-2-((S)-2-(4-(1H-tetrazol-5-yl)phenyl)-1-(2H-tetrazol-5-yl)ethyl)pentanoic acid]",18.8 µM,200 µM,150 µM,8.26,7.68,6.19
"CCC[C@H](C(=O)O)[C@H](Cc1cccc(C(N)=O)c1)c1nn[nH]n1 [Example 46, (2S)-2-[(1S)-2-(3-carbamoylphenyl)-1-(2H-tetrazol-5-yl)ethyl]pentanoic acid]",37.5 µM,12.5 µM,9.4 µM,8.23,7.15,5.80
"CCC[C@H](C(=O)O)[C@H](Cc1ccccc1C(N)=O)c1nnn[nH]1 [Example 47, (2S)-2-[(1S)-2-(2-carbamoylphenyl)-1-(1H-tetrazol-5-yl)ethyl]pentanoic acid]",200 µM,37.5 µM,9.4 µM,7.14,6.92,5.14
"CC(C)C[C@H](C(=O)O)[C@H](Cc1ccc(C(N)=O)cc1)c1nnn[nH]1 [Example 48, (2S)-2-[(1S)-2-(4-carbamoylphenyl)-1-(1H-tetrazol-5-yl)ethyl]-4-methylpentanoic acid]",4.7 µM,50 µM,6.2 µM,8.66,7.37,6.89
"CC(C)C[C@H](C(=O)O)[C@H](Cc1ccc(S(C)(=O)=O)cc1)c1nn[nH]n1 [Example 50, (S)-4-methyl-2-((S)-2-(4-(methylsulfonyl)phenyl)-1-(2H-tetrazol-5-yl)ethyl)pentanoic acid]",6.2 µM,50 µM,25 µM,8.18,7.33,7.00
"CC(C)CC(C(=O)O)[C@H](Cc1ccc(S(C)(=O)=O)cc1)c1nn[nH]n1 (stereo partly drawn) [Example 51, CAN-4-methyl-2-((S)-2-(4-(methylsulfonyl)phenyl)-1-(2H-tetrazol-5-yl)ethyl)pentanoic acid]",25 µM,150 µM,75 µM,7.60,6.74,6.27
"CCC[C@H](C(=O)O)[C@H](Cc1ccc(C)cc1)c1nn[nH]n1 [Example 52, (S)-2-((S)-1-(2H-tetrazol-5-yl)-2-(p-tolyl)ethyl)pentanoic acid]",18.8 µM,25 µM,18.8 µM,8.00,7.06,6.17
"Cc1ccc(C[C@H](c2nn[nH]n2)[C@H](CC(C)C)C(=O)O)cc1 [Example 53, (S)-2-((S)-1-(2H-tetrazol-5-yl)-2-(p-tolyl)ethyl)-4-methylpentanoic acid]",4.7 µM,75 µM,18.8 µM,8.24,7.43,7.05
